# From patent publication US6391826B1, “Optically active uracil compounds” (Sumitomo Chemical Company, Limited, priority 1998, dated 2002)
# How the values were obtained:
# Format in all cases: in vivo
# Design in all cases: key: “0” means that there was no or little difference in the degree of germination or growth between the treated and the untreated tested plants at the time of examination; “5” means that the test plants died complete or their germination or growth was completely inhibited
# [1] = test system: barnyardgrass (Echinochloa crus-gali); assay: Test Example 4: soil surface treatment on upland fields; conditions: examined after 25 days, index 0-5
# Description: (§1) Soil Surface Treatment on upland fields Plastic pots which have an area of (26.5×19)cm^2 and a depth of 7 cm were filled with upland soil, seeded with hemp sesbania (Sesbania exaltata), barnyardgrass (Echinochloa crus-gali) and johnsongrass (Sorghum halepense). Each of the test compounds was formulated into emulsifiable concentrates according to Formulation Example 2, which was diluted with a designated amount of water, and such was uniformly sprayed over the soil surface in the pots with a sprayer at a volume of 100 liters per hectare. After the application, the test were grown in a greenhouse for 25 days, and the herbicidal activity was examined.
# [2] = test system: johnsongrass (Sorghum halepense); assay: as above; conditions: examined after 25 days, index 0-5
# Description: as §1
# [3] = test system: hemp sesbania (Sesbania exaltata); assay: as above; conditions: examined after 25 days, index 0-5
# Description: as §1
# [4] = test system: johnsongrass (Sorghum halepense); assay: Test Example 5: soil incorporation treatment on upland fields; conditions: examined after 19 days, index 0-5
# From the text: (§2) Soil Incorporation Treatment on Upland Fields Cylindrical plastic pots of 10 cm in diameter and a 10 cm in depth were filled with upland soil. The soil from the surface to 3 cm in depth was taken and mixed with the dilution which was given by diluting the emulsifiable concentrates of the test compounds, formulated according to Formulation Example 2, with water at a volume of 606 liters per hectare. Thereafter, the treated soil was put back to the pots, in which johnsongrass (Sorghum halepense) was sowed at 1.5 cm in depth. The test plants were grown in a greenhouse for 19 days, and the herbicidal activity was examined.
# [5] = test system: johnsongrass (Sorghum halepense); assay: Test Example 6: soil surface treatment on upland fields; conditions: examined after 25 days, index 0-5
# Description: (§3) Soil Surface Treatment on Upland Fields Plastic pots which have an area of (26.5×19)cm^2 and a depth of 7 cm were filled with upland soil, seeded with johnsongrass (Sorghum halepense). Each of the test compounds was formulated into emulsifiable concentrates according to Formulation Example 2, which was diluted with a designated amount of water, and such was uniformly sprayed over the soil surface in the pots with a sprayer at a volume of 1000 liters per hectare. After the application, the test plants were placed in a greenhouse for 25 days, and the herbicidal activity was examined.
# [6] = test system: johnsongrass (Sorghum halepense); assay: Test Example 2: soil surface treatment on upland fields; conditions: examined after 25 days, index 0-5
# Description: Soil Surface Treatment on Upland Fields
# as §3, with “Plastic” for “Soil Surface Treatment on Upland Fields Plastic”, “grown” for “placed”
# [7] = test system: johnsongrass (Sorghum halepense); assay: Test Example (Table 3): soil incorporation treatment on upland fields; conditions: examined after 19 days, index 0-5
# From the text: Soil Incorporation Treatment on Upland Fields
# as §2, with “Cylindrical” for “Soil Incorporation Treatment on Upland Fields Cylindrical”
# [8] = test system: common cocklebur (Xanthium strumarium); assay: Test Example 1: foliar treatment on upland fields; conditions: 1 g/ha active ingredient; foliar spray on 21-day plants, 1% Agri-Dex; examined after 21 days; index 0-5
# Description: Foliar Treatment on Upland Fields
# Plastic pots which have an area of (26.5×19)cm^2 and a depth of 7 cm were filled with upland soil, seeded with common cocklebur (Xanthium strumarium) and were given 21 days to grow in a greenhouse. Each of the test compounds was formulated into emulsifiable concentrates according to Formulation Example 2, which was diluted with a designated amount of water containing 1% Agri-Dex (adjuvant produced by Helena Chemical Company), and such was uniformly sprayed over the foliage of the test plants with a sprayer at a volume of 1000 liters per hectare. After the application, the test plants were grown in the greenhouse for 21 days, and the herbicidal activity was examined.
compound,measurement,setting,value
"CCOC(=O)C(C)Oc1cc(-n2c(=O)cc(C(F)(F)F)n(C)c2=O)c(F)cc1Cl (racemic) [Comparative Compound 2, ethyl (2RS)-2-[2-chloro-4-fluoro-5-[3-methyl-2,6-dioxo-4-(trifluoromethyl)-1,2,3,6-tetrahydropyrimidin-1-yl]phenoxy]propionate]",Herbicidal Activity barnyard-grass,[1]; 16 g/ha,0
same,Herbicidal Activity barnyard-grass,[1]; 32 g/ha,3
same,Herbicidal Activity barnyard-grass,[1]; 63 g/ha,3
same,Herbicidal Activity barnyard-grass,[1]; 125 g/ha,5
same,Herbicidal Activity johnson-grass,[2]; 16 g/ha,0
same,Herbicidal Activity johnson-grass,[2]; 32 g/ha,2
same,Herbicidal Activity johnson-grass,[2]; 63 g/ha,3
same,Herbicidal Activity johnson-grass,[2]; 125 g/ha,4
same,Herbicidal Activity hemp sesbania,[3]; 16 g/ha,0
same,Herbicidal Activity hemp sesbania,[3]; 32 g/ha,2
same,Herbicidal Activity hemp sesbania,[3]; 63 g/ha,3
same,Herbicidal Activity hemp sesbania,[3]; 125 g/ha,4
same,Herbicidal Activity johnsongrass,[4]; 20 g/ha,1
same,Herbicidal Activity johnsongrass,[4]; 40 g/ha,2
same,Herbicidal Activity johnsongrass,[4]; 80 g/ha,4
"C=CCOC(=O)C(C)Oc1cc(-n2c(=O)cc(C(F)(F)F)n(C)c2=O)c(F)cc1Cl (racemic) [Comparative Compound 3, allyl (2RS)-2-[2-chloro-4-fluoro-5-[3-methyl-2,6-dioxo-4-(trifluoromethyl)-1,2,3,6-tetrahydropyrimidin-1-yl]phenoxy]propionate, reference compound]",Herbicidal Activity johnsongrass,[5]; 16 g/ha,0
same,Herbicidal Activity johnsongrass,[5]; 32 g/ha,1
same,Herbicidal Activity johnsongrass,[5]; 63 g/ha,2
"COC(=O)C(C)Oc1cc(-n2c(=O)cc(C(F)(F)F)n(C)c2=O)c(F)cc1Cl (single isomer, unassigned) [Present Compound 6, methyl 2-[2-chloro-4-fluoro-5-[3-methyl-2,6-dioxo-4-(trifluoromethyl)-1,2,3,6-tetrahydropyrimidin-1-yl]phenoxy]propionate]",Herbicidal Activity johnsongrass,[6]; 16 g/ha,4
same,Herbicidal Activity johnsongrass,[6]; 32 g/ha,5
same,Herbicidal Activity johnsongrass,[6]; 63 g/ha,5
same,Herbicidal Activity johnsongrass,[7]; 20 g/ha,3
same,Herbicidal Activity johnsongrass,[7]; 40 g/ha,5
same,Herbicidal Activity johnsongrass,[7]; 80 g/ha,5
"COC(=O)C(C)Oc1cc(-n2c(=O)cc(C(F)(F)F)n(C)c2=O)c(F)cc1Cl (single isomer, unassigned) [Present Compound 7, methyl 2-[2-chloro-4-fluoro-5-[3-methyl-2,6-dioxo-4-(trifluoromethyl)-1,2,3,6-tetrahydropyrimidin-1-yl]phenoxy]propionate]",Herbicidal Activity johnsongrass,[6]; 16 g/ha,4
same,Herbicidal Activity johnsongrass,[6]; 32 g/ha,5
same,Herbicidal Activity johnsongrass,[6]; 63 g/ha,5
same,Herbicidal Activity johnsongrass,[7]; 20 g/ha,2
same,Herbicidal Activity johnsongrass,[7]; 40 g/ha,5
same,Herbicidal Activity johnsongrass,[7]; 80 g/ha,5
"COC(=O)[C@H](C)Oc1cc(-n2c(=O)cc(C(F)(F)F)n(C)c2=O)c(F)cc1Cl [Comparative Compound 1, methyl (2S)-2-[2-chloro-4-fluoro-5-[3-methyl-2,6-dioxo-4-(trifluoromethyl)-1,2,3,6-tetrahydropyrimidin-1-yl]phenoxy]propionate, reference compound]",Herbicidal Activity Common Cocklebur,[8],0
"COC(=O)C(C)Oc1cc(-n2c(=O)cc(C(F)(F)F)n(C)c2=O)c(F)cc1Cl (centres unmarked) [Comparative Compound 4, methyl 2-[2-chloro-4-fluoro-5-[3-methyl-2,6-dioxo-4-(trifluoromethyl)-1,2,3,6-tetrahydropyrimidin-1-yl]phenoxy]propionate, reference compound]",Herbicidal Activity johnsongrass,[6]; 16 g/ha,1
same,Herbicidal Activity johnsongrass,[6]; 32 g/ha,2
same,Herbicidal Activity johnsongrass,[6]; 63 g/ha,4
same,Herbicidal Activity johnsongrass,[7]; 20 g/ha,0
same,Herbicidal Activity johnsongrass,[7]; 40 g/ha,2
same,Herbicidal Activity johnsongrass,[7]; 80 g/ha,4
"COC(=O)[C@@H](C)Oc1cc(-n2c(=O)cc(C(F)(F)F)n(C)c2=O)c(F)cc1Cl [Present Compound 1, methyl (2R)-2-[2-chloro-4-fluoro-5-[3-methyl-2,6-dioxo-4-(trifluoromethyl)-1,2,3,6-tetrahydropyrimidin-1-yl]phenoxy]propionate]",Herbicidal Activity Common Cocklebur,[8],5
"CCOC(=O)[C@@H](C)Oc1cc(-n2c(=O)cc(C(F)(F)F)n(C)c2=O)c(F)cc1Cl [Present Compound 2, ethyl (2R)-2-[2-chloro-4-fluoro-5-[3-methyl-2,6-dioxo-4-(trifluoromethyl)-1,2,3,6-tetrahydropyrimidin-1-yl]phenoxy]propionate]",Herbicidal Activity barnyard-grass,[1]; 16 g/ha,5
same,Herbicidal Activity barnyard-grass,[1]; 32 g/ha,5
same,Herbicidal Activity barnyard-grass,[1]; 63 g/ha,5
same,Herbicidal Activity johnson-grass,[2]; 16 g/ha,3
same,Herbicidal Activity johnson-grass,[2]; 32 g/ha,5
same,Herbicidal Activity johnson-grass,[2]; 63 g/ha,5
same,Herbicidal Activity hemp sesbania,[3]; 16 g/ha,2
same,Herbicidal Activity hemp sesbania,[3]; 32 g/ha,5
same,Herbicidal Activity hemp sesbania,[3]; 63 g/ha,5
same,Herbicidal Activity johnsongrass,[4]; 20 g/ha,4
same,Herbicidal Activity johnsongrass,[4]; 40 g/ha,5
same,Herbicidal Activity johnsongrass,[4]; 80 g/ha,5
"C=CCOC(=O)[C@@H](C)Oc1cc(-n2c(=O)cc(C(F)(F)F)n(C)c2=O)c(F)cc1Cl [Present Compound 3, allyl (2R)-2-[2-chloro-4-fluoro-5-[3-methyl-2,6-dioxo-4-(trifluoromethyl)-1,2,3,6-tetrahydropyrimidin-1-yl]phenoxy]propionate]",Herbicidal Activity johnsongrass,[5]; 16 g/ha,3
same,Herbicidal Activity johnsongrass,[5]; 32 g/ha,5
same,Herbicidal Activity johnsongrass,[5]; 63 g/ha,5
"COC(=O)[C@@H](C)Oc1cc(-n2c(=O)cc(C(F)(F)F)n(C)c2=O)c(F)cc1Cl [Present Compound 5, methyl (2R)-2-[2-chloro-4-fluoro-5-[3-methyl-2,6-dioxo-4-(trifluoromethyl)-1,2,3,6-tetrahydropyrimidin-1-yl]phenoxy]propionate]",Herbicidal Activity johnsongrass,[6]; 16 g/ha,4
same,Herbicidal Activity johnsongrass,[6]; 32 g/ha,5
same,Herbicidal Activity johnsongrass,[6]; 63 g/ha,5
same,Herbicidal Activity johnsongrass,[7]; 20 g/ha,4
same,Herbicidal Activity johnsongrass,[7]; 40 g/ha,5
same,Herbicidal Activity johnsongrass,[7]; 80 g/ha,5
